Read-outs that look alike come from different tables or passages of the source.
Assays:
CYP3A4 = CYP3A4 (Homo sapiens (Human), UniProt P08684); test: CYP3A4 inhibition assay (human liver microsomes, testosterone 6β-hydroxylation); conditions: read-out: CYP3A4 IC50, 40 μM testosterone
Description: The CYP3A4 inhibition assay was performed using human liver microsomes and testosterone 6β-hydroxylation as a P450 isoform-specific marker. In a total volume of 150 μL, ^14C-testosterone at a final concentration of 40 μM in a 100 mM phosphate buffer (pH 7.4) was incubated in a 96-well plate with 0.3 mg/mL of human liver microsomes in an Eppendorf thermomixer at 37° C. and 400 rpm. […] The reaction was initiated by addition of 15 μL of the NADPH-regenerating system containing the glucose-6-phosphate dehydrogenase and terminated after 7 min with a 75 μL-aliquot of methanol. After centrifugation at 465 g and 4° C. for 20 min, a 50 μL-aliquot of the supernatant was submitted to HPLC according to the method described below. The total concentration of DMSO in the assay including controls without inhibitor was 1%.
Nicardipine was run in parallel as a reference inhibitor of CYP3A4 activity at final concentrations of 0, 0.1, 0.5, 1.0, 5.0, 10, 25, and 50 μM. Stock solutions thereof were prepared in DMSO.
The chromatographic separation of testosterone and 6β-hydroxytestosterone was achieved on a Phenomenex Luna C18(2) column (5 μm, 2.0×10 mm) at RT with a flow rate of 0.6 mL/min. Mobile phases consisted of 1% aqueous formic acid (phase A) and methanol (phase B) using a gradient method with 0.9 min total run time.
The quantification of 6β-hydroxytestosterone was carried out using a quadrupole mass spectrometer equipped with an ionspray interface operating in positive ion mode. The parameters of the mass detector were set as follows: capillary voltage 5 kV, auxiliary gas 40 psi, collision gas 3 mTorr, and transfer capillary temperature 420° C.

human orexin-2 receptor = human orexin-2 receptor (Homo sapiens (Human), UniProt O43614); test: In vitro intracellular calcium measurements (FLIPR), antagonistic activity on orexin-2 receptor; type: cell-based; conditions: read-out: IC50 OX2
Chain of human orexin-2 receptor (O43614 whole entry): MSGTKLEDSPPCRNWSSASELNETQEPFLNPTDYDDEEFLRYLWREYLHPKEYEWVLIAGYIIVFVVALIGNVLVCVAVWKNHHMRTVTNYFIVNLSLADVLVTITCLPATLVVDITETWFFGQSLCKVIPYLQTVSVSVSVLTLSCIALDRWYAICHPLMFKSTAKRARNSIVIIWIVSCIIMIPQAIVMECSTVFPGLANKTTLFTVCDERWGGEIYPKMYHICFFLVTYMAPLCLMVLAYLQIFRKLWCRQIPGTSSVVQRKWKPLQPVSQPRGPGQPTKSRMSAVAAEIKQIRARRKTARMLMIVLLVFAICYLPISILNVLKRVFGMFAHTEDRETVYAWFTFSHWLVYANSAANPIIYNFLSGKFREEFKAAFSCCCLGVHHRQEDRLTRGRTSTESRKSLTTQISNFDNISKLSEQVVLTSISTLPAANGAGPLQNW
In short: (§1)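 Recombinant CHO lines bearing human OX1 or OX2 receptors received test antagonist 120 min before agonist addition.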

human orexin-1 receptor = human orexin-1 receptor (Homo sapiens (Human), UniProt O43613); test: In vitro intracellular calcium measurements (FLIPR), antagonistic activity on orexin-1 receptor; type: cell-based; conditions: read-out: IC50 OX1
Chain of human orexin-1 receptor (O43613 whole entry): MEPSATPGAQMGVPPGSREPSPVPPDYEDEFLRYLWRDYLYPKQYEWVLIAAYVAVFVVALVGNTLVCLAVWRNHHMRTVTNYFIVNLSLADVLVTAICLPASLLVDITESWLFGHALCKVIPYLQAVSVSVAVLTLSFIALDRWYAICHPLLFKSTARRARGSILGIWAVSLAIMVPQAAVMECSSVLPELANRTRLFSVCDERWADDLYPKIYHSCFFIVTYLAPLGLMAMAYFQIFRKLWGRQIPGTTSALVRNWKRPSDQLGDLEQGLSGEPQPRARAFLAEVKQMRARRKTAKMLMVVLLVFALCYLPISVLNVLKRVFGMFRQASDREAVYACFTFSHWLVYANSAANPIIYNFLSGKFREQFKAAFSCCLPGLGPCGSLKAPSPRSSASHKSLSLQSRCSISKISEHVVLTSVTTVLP
In short: as §1

[1] = CHO cells expressing human orexin-2 receptor, FLIPR, 3 nM orexin-A agonist, 120 min antagonist incubation, geometric mean if determined several times
[2] = CHO cells expressing human orexin-1 receptor, FLIPR, 3 nM orexin-A agonist, 120 min antagonist incubation, geometric mean if determined several times

Chain of CYP3A4 (P08684 whole entry): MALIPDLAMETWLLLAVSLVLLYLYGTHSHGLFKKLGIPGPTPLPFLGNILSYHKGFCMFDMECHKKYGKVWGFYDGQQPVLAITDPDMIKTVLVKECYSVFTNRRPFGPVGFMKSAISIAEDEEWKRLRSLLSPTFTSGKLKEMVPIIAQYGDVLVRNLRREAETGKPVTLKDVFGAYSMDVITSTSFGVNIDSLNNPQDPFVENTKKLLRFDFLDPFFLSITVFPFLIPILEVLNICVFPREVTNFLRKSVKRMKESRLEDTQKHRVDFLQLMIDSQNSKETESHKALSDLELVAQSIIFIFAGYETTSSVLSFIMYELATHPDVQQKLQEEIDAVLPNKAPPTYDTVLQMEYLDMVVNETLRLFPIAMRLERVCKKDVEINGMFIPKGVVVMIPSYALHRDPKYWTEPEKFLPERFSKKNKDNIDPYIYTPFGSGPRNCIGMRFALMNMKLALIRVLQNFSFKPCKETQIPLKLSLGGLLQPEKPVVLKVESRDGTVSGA

SMILES | IC50 (CYP3A4) [nM] | IC50 (human orexin-2 receptor; [1]) [nM] | IC50 (human orexin-1 receptor; [2]) [nM] | IC50 (human orexin-2 receptor) [nM] | IC50 (human orexin-1 receptor) [nM]
O=C(c1cccc(F)c1-n1nccn1)N1CCOC[C@H]1Cc1cccc(-n2nccn2)c1 [Example 54, (3-Fluoro-2-[1,2,3]triazol-2-yl-phenyl)-[(R)-3-(3-[1,2,3]triazol-2-yl-benzyl)-morpholin-4-yl]-methanone] | > 50000 | 1820 | 46 |  | 
Cc1ccc(-n2nccn2)c(C(=O)N2CCOC[C@H]2Cc2cc(-n3nccn3)ccc2F)c1 [Example 56, [(R)-3-(2-Fluoro-5-[1,2,3]triazol-2-yl-benzyl)-morpholin-4-yl]-(5-methyl-2-[1,2,3]triazol-2-yl-phenyl)-methanone] | 33000 | 837 | 4 |  | 
O=C(c1ccccc1-n1nccn1)N1CCOC[C@H]1Cc1cc(-n2nccn2)ccc1F [Example 57, [(R)-3-(2-Fluoro-5-[1,2,3]triazol-2-yl-benzyl)-morpholin-4-yl]-(2-[1,2,3]triazol-2-yl-phenyl)-methanone] | 20000 | 2740 | 48 |  | 
COc1ccc(C[C@@H]2COCCN2C(=O)c2cc(C)ccc2-n2nccn2)cc1-c1ncon1 [Example 58, [(R)-3-(4-Methoxy-3-[1,2,4]oxadiazol-3-yl-benzyl)-morpholin-4-yl]-(5-methyl-2-[1,2,3]triazol-2-yl-phenyl)-methanone] | 42000 | 42 | 0.7 |  | 
COc1ccc(C[C@@H]2COCCN2C(=O)c2ccccc2-n2nccn2)cc1-c1ncon1 [Example 59, [(R)-3-(4-Methoxy-3-[1,2,4]oxadiazol-3-yl-benzyl)-morpholin-4-yl]-(2-[1,2,3]triazol-2-yl-phenyl)-methanone] | 32000 | 80 | 1 |  | 
COc1ccc(C[C@@H]2COCCN2C(=O)c2ccc(C)cc2-n2nccn2)cc1-c1ncon1 [Example 60, [(R)-3-(4-Methoxy-3-[1,2,4]oxadiazol-3-yl-benzyl)-morpholin-4-yl]-(4-methyl-2-[1,2,3]triazol-2-yl-phenyl)-methanone] | 41000 | 34 | 0.7 |  | 
COc1ccc(C[C@@H]2COCCN2C(=O)c2ccc(F)cc2-n2nccn2)cc1-c1ncon1 [Example 61, (4-Fluoro-2-[1,2,3]triazol-2-yl-phenyl)-[(R)-3-(4-methoxy-3-[1,2,4]oxadiazol-3-yl-benzyl)-morpholin-4-yl]-methanone] | 42000 | 60 | 1 |  | 
Cc1ccc(-n2nccn2)c(C(=O)N2CCOC[C@H]2Cc2ccc(C)c(-n3nccn3)c2)c1 [Example 65, [(R)-3-(4-Methyl-3-[1,2,3]triazol-2-yl-benzyl)-morpholin-4-yl]-(5-methyl-2-[1,2,3]triazol-2-yl-phenyl)-methanone] | 22000 | 261 | 2 |  | 
Cc1ccc(C[C@@H]2COCCN2C(=O)c2ccccc2-n2nccn2)cc1-n1nccn1 [Example 66, [(R)-3-(4-Methyl-3-[1,2,3]triazol-2-yl-benzyl)-morpholin-4-yl]-(2-[1,2,3]triazol-2-yl-phenyl)-methanone] | 36000 | 992 | 16 |  | 
Cc1ccc(C(=O)N2CCOC[C@H]2Cc2ccc(C)c(-n3nccn3)c2)c(-n2nccn2)c1 [Example 67, [(R)-3-(4-Methyl-3-[1,2,3]triazol-2-yl-benzyl)-morpholin-4-yl]-(4-methyl-2-[1,2,3]triazol-2-yl-phenyl)-methanone] | 25000 |  |  | 274 | 2
C[C@@H]1COC[C@@H](Cc2cccc(-n3nccn3)c2)N1C(=O)c1ccccc1-n1nccn1 [Example 68, [(3R,5R)-3-Methyl-5-(3-[1,2,3]triazol-2-yl-benzyl)-morpholin-4-yl]-(2-[1,2,3]triazol-2-yl-phenyl)-methanone] | 24000 | 1300 | 16 |  | 
Cc1ccc(C(=O)N2[C@H](Cc3cccc(-n4nccn4)c3)COC[C@@H]2C)c(-n2nccn2)c1 [Example 71, [(3S,5R)-3-Methyl-5-(3-[1,2,3]triazol-2-yl-benzyl)-morpholin-4-yl]-(4-methyl-2-[1,2,3]triazol-2-yl-phenyl)-methanone] | 14000 |  |  | 2190 | 35
Cc1ccc(-n2nccn2)c(C(=O)N2[C@H](Cc3cccc(-n4nccn4)c3)COC[C@@H]2C)c1 [Example 73, [(3S,5R)-3-Methyl-5-(3-[1,2,3]triazol-2-yl-benzyl)-morpholin-4-yl]-(5-methyl-2-[1,2,3]triazol-2-yl-phenyl)-methanone] | 6800 | 1850 | 10 |  | 
Cc1cc(C)c(-n2nccn2)c(C(=O)N2CCOC[C@H]2Cc2cccc(-n3nccn3)c2)c1 [Example 75, (3,5-Dimethyl-2-[1,2,3]triazol-2-yl-phenyl)-[(R)-3-(3-[1,2,3]triazol-2-yl-benzyl)-morpholin-4-yl]-methanone] | 15000 | 547 | 3 |  | 
COc1cc(C(=O)N2CCOC[C@H]2Cc2cccc(-n3nccn3)c2)c(-n2nccn2)cc1F [Example 78, (4-Fluoro-5-methoxy-2-[1,2,3]triazol-2-yl-phenyl)-[(R)-3-(3-[1,2,3]triazol-2-yl-benzyl)-morpholin-4-yl]-methanone] | 22000 | 528 | 17 |  | 
Cc1ccc(C(=O)N2CCOC[C@H]2Cc2cccc(-c3ncon3)c2)c(-n2nccn2)c1 [Example 81, (4-Methyl-2-[1,2,3]triazol-2-yl-phenyl)-[(R)-3-(3-[1,2,4]oxadiazol-3-yl-benzyl)-morpholin-4-yl]-methanone] | 33000 | 212 | 2 |  | 
O=C(c1cc(Cl)ccc1-n1nccn1)N1CCOC[C@H]1Cc1cccc(-c2ncon2)c1 [Example 84, (5-Chloro-2-[1,2,3]triazol-2-yl-phenyl)-[(R)-3-(3-[1,2,4]oxadiazol-3-yl-benzyl)-morpholin-4-yl]-methanone] | 21000 | 246 | 5 |  | 
Cc1cc(C(=O)N2CCOC[C@H]2Cc2cccc(-c3ncon3)c2)c(-n2nccn2)cc1C [Example 85, (4,5-Dimethyl-2-[1,2,3]triazol-2-yl-phenyl)-[(R)-3-(3-[1,2,4]oxadiazol-3-yl-benzyl)-morpholin-4-yl]-methanone] | 25000 | 21 | 1 |  | 
O=C(c1ccccc1-n1nccn1)N1CCOC[C@H]1Cc1ccc(Cl)c(-c2ncon2)c1 [Example 90, [(R)-3-(4-Chloro-3-[1,2,4]oxadiazol-3-yl-benzyl)-morpholin-4-yl]-(2-[1,2,3]triazol-2-yl-phenyl)-methanone] | 21000 | 475 | 12 |  | 
O=C(c1cc(F)c(F)cc1-n1nccn1)N1CCOC[C@H]1Cc1cccc(-n2nccn2)c1 [Example 91, (4,5-Difluoro-2-[1,2,3]triazol-2-yl-phenyl)-[(R)-3-(3-[1,2,3]triazol-2-yl-benzyl)-morpholin-4-yl]-methanone] | 17000 | 612 | 10 |  | 
COc1ccc(C(=O)N2CCOC[C@H]2Cc2cccc(-n3nccn3)c2)c(-n2nccn2)c1 [Example 93, (4-Methoxy-2-[1,2,3]triazol-2-yl-phenyl)-[(R)-3-(3-[1,2,3]triazol-2-yl-benzyl)-morpholin-4-yl]-methanone] | > 50000 |  |  | 2090 | 5
COc1ccc(C(=O)N2CCOC[C@H]2Cc2cc(-n3nccn3)ccc2F)c(-n2nccn2)c1 [Example 95, [(R)-3-(2-Fluoro-5-[1,2,3]triazol-2-yl-benzyl)-morpholin-4-yl]-(4-methoxy-2-[1,2,3]triazol-2-yl-phenyl)-methanone] | 49000 | 1200 | 11 |  | 
Cc1ccc(C(=O)N2C[C@H](C)OC[C@H]2Cc2cccc(-n3nccn3)c2)c(-n2nccn2)c1 [Example 96, [(2S,5R)-2-Methyl-5-(3-[1,2,3]triazol-2-yl-benzyl)-morpholin-4-yl]-(4-methyl-2-[1,2,3]triazol-2-yl-phenyl)-methanone] | 28000 |  |  | 390 | 10
Cc1cccc(C(=O)N2C[C@@H](C)OC[C@H]2Cc2cccc(-n3nccn3)c2)c1-n1nccn1 [Example 97, [(2R,5R)-2-Methyl-5-(3-[1,2,3]triazol-2-yl-benzyl)-morpholin-4-yl]-(3-methyl-2-[1,2,3]triazol-2-yl-phenyl)-methanone] | 11000 | 237 | 3 |  | 
Cc1cc(C(=O)N2C[C@@H](C)OC[C@H]2Cc2cccc(-n3nccn3)c2)c(-n2nccn2)cc1C [Example 98, (4,5-Dimethyl-2-[1,2,3]triazol-2-yl-phenyl)-[(2R,5R)-2-methyl-5-(3-[1,2,3]triazol-2-yl-benzyl)-morpholin-4-yl]-methanone] | 9700 | 24 | 1 |  | 
Cc1ccc(C(=O)N2C[C@@H](C)OC[C@H]2Cc2cccc(-n3nccn3)c2)c(-n2nccn2)c1C [Example 99, (3,4-Dimethyl-2-[1,2,3]triazol-2-yl-phenyl)-[(2R,5R)-2-methyl-5-(3-[1,2,3]triazol-2-yl-benzyl)-morpholin-4-yl]-methanone] | 9600 | 1220 | 5 |  | 
Cc1ccc(C(=O)N2C[C@@H](C)OC[C@H]2Cc2cccc(-n3nccn3)c2)c(-n2nccn2)c1 [Example 101, [(2R,5R)-2-Methyl-5-(3-[1,2,3]triazol-2-yl-benzyl)-morpholin-4-yl]-(4-methyl-2-[1,2,3]triazol-2-yl-phenyl)-methanone] | 9700 |  |  | 155 | 2

— patent US9150566B2, “2-(1,2,3-triazol-2-yl)benzamide and 3-(1,2,3-triazol-2-YL)picolinamide derivatives as orexin receptor antagonists” (ACTELION PHARMACEUTICALS LTD., priority 2011, dated 2015)
